From patent US6288089A, “Use of kinase inhibitors for treating neurodegenerative diseases” (priority 1999, dated 2001)
Entries after “also recorded” stand apart in the source; their conditions may differ.

How the values were obtained:
[1] = system: TH+ dopamine neurons of E15 rat mesencephalic primary cultures; type: cell-based; conditions: 20 h serum withdrawal
[2] = system: transplanted embryonic rat ventral mesencephalic dopamine neurons; conditions: tissue preincubated 2 h with 10 μM; six weeks after transplantation
Procedure: Following the incubation, the tissue was immediately transplanted into the denervated rat striatum. Six weeks after transplantation, TH+ cells within the striatum were visualized following sacrifice of the animals, and cryotome sectioning and immunostaining for tyrosine hydroxylase (TH) using a polyclonal anti-rat TH primary antibody.
For the transplantation, one-half embryonic day 15 (E15) rat ventral mesencephalon was extruded into a strand using a 0.2 mm in diameter glass cannula made by heating a glass luer adaptor (Kimble-Kontes, Cat# 663500-0444). […] Following incubation, the tissue was immediately transplanted into the denervated rat striatum. The tissue strand was drawn up into a 24 g sterile stainless steel cannula attached to a microliter syringe and stereotaxically transplanted at the following coordinates (AP 0.0 mm form bregma, LAT3.0 mm form the midline, VD-3.5 to -7.5 mm below the dura) in 4.0 μl over 4 min.
Visualization of TH+ cells: Six weeks after transplantation, all animals were sacrificed, and their brains perfused with heparinized-saline followed by 4% paraformaldehyde. […] All TH-immunoreactive neurons were counted in every third section under a microscope. Abercrombie's correction was used to estimate the total number of TH+ neurons surviving in each transplant.

[3] = system: TH+ dopamine neurons of E15 rat ventral mesencephalic cultures; conditions: 10 μM; 18 h serum-free
Source text: To make this determination, select rat embryonic mesencephalic cultures were double stained for both the TH dopaminergic cell marker and for nuclear characteristics indicative of apoptosis. […] Following 18 hrs under these conditions, cultures were immunostained using anti-rat TH primary antibody followed by a fluorescent (FITC-conjugated) secondary antibody. Subsequently, cells were stained with a fluorescent Hoechst 33258 DNA dye. Only those cells containing nuclear chromatin condensations (pyknotic nuclei) were scored as apoptotic. Cells containing intact nuclei -were counted as healthy. In the entire experiment, a total of 5066 TH-immunoreactive neurons were examined for nuclear chromatin condensation. Four sample groups were tested:
In this Example, experiments to study tyrosine hydroxylase-positive apoptotic cells were conducted. E15 rat ventral mesencephalic cultures were grown in F12 medium containing 5% human placental serum for 24 hrs. […] Next, cultures were washed with PBS and fixed for 2 min in 1% paraformaldehyde followed by further fixation in 70% ethanol in glycine buffer at -20° C. for 10 min. […] Cells containing intact nuclei were counted as healthy. […] In the entire experiment, total of 5066 TH-immunoreactive neurons were examined for the nuclear chromatin condensation under a fluorescence microscope.

Row | SMILES | surviving TH+ neurons/cm^2 ([1]; 1 μM inhibitor, serum control […]±30, no serum 283±32) [TH+ neurons/cm^2] | concentration at which the survival effect on TH+ neurons reached its maximum ([1]; 0.1-10 μM tested) [µM] | number of surviving dopamine neurons (TH+ cells) compared to sham-pretreated transplants [2] | anti-apoptotic effect in dopamine neurons after serum withdrawal [3]
1 | Oc1ccc(-c2nc(-c3ccc(F)cc3)c(-c3ccncc3)[nH]2)cc1 [SB 202190] | 537±37 | 1 | – | –
2 | C[S+]([O-])c1ccc(-c2nc(-c3ccc(F)cc3)c(-c3ccncc3)[nH]2)cc1 (stereo not shown) [SB 203580] | – | – | intermediate level | significant (p<0.001), although less dramatic than that of PD169316; also recorded: significant (p<0.001) although less dramatic than that of PD169316
